System: OVCAR-5 complex spheroid (HUVEC/MSC), viability % T/C
Assay: Anticancer human tumor OVCAR-5 cell line growth inhibition [Asc];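 further: spheroids exposed to agents for 7 days before readout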;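 on viability, T/C: 100% = DMSO vehicle-treated wells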
Settings: for IC50: curve of first compound; for viability, T/C: stronger effect = lower value
Description: Multicellular complex tumor spheroid response to apoptosis pathway targeting inhibitors Alrizomadlin, Pelcitoclax, and Dasminapant in combination with a variety of drugs and investigational agents in selected tumor cell lines
The MDM2 inhibitor alrizomadlin, the Bcl-2/Bcl-xL inhibitor pelcitoclax, and the IAPs inhibitor dasminapant were evaluated both individually and in combination with standard of care and investigational anticancer small molecules within a complex spheroid model of solid tumors. . Complex spheroids include a stromal component modeled by human endothelial cells (HUVEC) and fibroblasts modeled by human mesenchymal stem cells (MSCs). The concentration ranges selected for each drug and investigational agent were based upon clinically achievable concentrations if the clinical Cmax of the agent was known.
Compounds. The drugs and investigational agents: alrizomadlin (APG-115; NSC831270), pelcitoclax (APG-1252; NSC835773), dasminapant (APG-1387;NSC834197), TAK-243 (NSC785004), copanlisib (NSC809693), olaparib (NSC753686), talazoparib (NSC767125), cobimetinib (NSC 768068), eltanexor (KPT-8602, NSC 794443), abemaciclib (NSC 768073), sotorasib (NSC818433), adagrasib (NSC 831453), MRTX-1133 (NSC 836407), Iadademestat (ORY1001, NSC 806812), and RMC-4630 (NSC839698), were obtained from the NCI Developmental Therapeutics Program Chemical Repository. The FDA-approved anticancer drug set is available from the Developmental Therapeutics Program at https://dtp.cancer.gov/organization/dscb/obtaining/available plates.htm. […] The stock solutions were prepared in dimethyl sulfoxide (DMSO, Sigma-Aldrich, St. Louis, MO, cat. D2650) at 800-fold the tested concentration and stored at -70 degrees C prior to their use. All drugs and investigational agents were tested over a range starting from a high concentration at or near the clinical Cmax and decreasing in half-log increments. If the clinical Cmax for an agent had not been determined, the highest concentration tested was 10 microM.
The patient-derived cancer (PDC) cell lines include five colon adenocarcinomas: 186277-243-T-J2-PDC, 616215-338-R-J1-PDC, 439559-082-T-J2-PDC, 463943-066-T-J2-PDC, and 519858-162-T-J1-PDC; three pancreatic carcinomas: 323965-272-R-J2-PDC, 521955-158-R6-J3-PDC, and 521955-158-R2-J5-PDC; two uterine sarcomas: 327498-152-R-J2-PDC and 993429-296-R-J1-PDC; two rhabdomyosarcomas: 755483-174-R-J1-PDC and 772245-204-R-J1-PDC; two soft tissue sarcomas: 126254-015-R-J1-PDC and 494315-158-R-J1-PDC; two malignant fibrous histiocytomas: 317291-083-R-J1-PDC and 596521-263-R-J1-PDC; two breast carcinomas: 171881-019-R-J1-PDC and 885512-296-R-J2-PDC; and one ovarian carcinoma: 6556581-035-R-J-PDC were obtained from the NCI PDMR, (https://pdmr.cancer.gov). The established cell lines HSSY-2 synovial sarcoma (RRID:CVCL 8719), SYO-1 synovial sarcoma (RRID:CVCL_7146), MPNST malignant peripheral neural sheath tumor were obtained from the Sloan Kettering Institute. The following established cell lines were purchased from the American Type Culture Collection (ATCC, Manassas, VA), Sor the received from the NCI repository:, PANC-1 pancreatic carcinoma (CRL-1469, RRID:CVCL_0480), OVCAR-5 ovarian carcinoma (RRID:CVCL_1628), OVCAR-8 ovarian carcinoma (RRID:CVCL_1629), , MCF-7 breast carcinoma (CRL-12584, RRID:CVCL_0031), MDA-MB-231 breast carcinoma (CRL-12532, RRID:CVCL_0062), NCI-H1876 small cell lung carcinoma (CRL-5902, RRID:CVCL_1503), NCI-H510A small cell lung carcinoma (HTB-184, RRID:CVCL_1565), NCI-H1417 (CRL-5869, RRID:CVCL_1469), and NCI-H196 small cell lung carcinoma (CRL-5823, RRID:CVCL_1509). Dr. Peter Houghton (Greehey Children's Cancer Research Institute, University of Texas Health Science Center, San Antonio, TX) provided Rh-18 rhabdomyosarcoma (RRID:CVCL_1659). Pooled donor human umbilical vein endothelial cells (HUVEC, Lonza, cat. CC-2519) and human mesenchymal stem cells (hMSC, Lonza, cat. PT-2501) were purchased from Lonza (Walkersville, MD).
Cell Culture. […]

[1] = second compound 0.03 µM, first compound 0.00316 µM
[2] = second compound 0.03 µM, first compound 0.01 µM
[3] = second compound 0.03 µM, first compound 0.0316 µM
[4] = second compound 0.03 µM, first compound 0.1 µM
[5] = second compound 0.0949 µM, first compound 0.00316 µM
[6] = second compound 0.0949 µM, first compound 0.01 µM
[7] = second compound 0.0949 µM, first compound 0.0316 µM
[8] = second compound 0.0949 µM, first compound 0.1 µM
[9] = second compound 0.3 µM, first compound 0.00316 µM
[10] = second compound 0.3 µM, first compound 0.01 µM
[11] = second compound 0.3 µM, first compound 0.0316 µM
[12] = second compound 0.3 µM, first compound 0.1 µM
[13] = second compound 0.949 µM, first compound 0.00316 µM
[14] = second compound 0.949 µM, first compound 0.01 µM
[15] = second compound 0.949 µM, first compound 0.0316 µM
[16] = second compound 0.949 µM, first compound 0.1 µM
[17] = second compound 3 µM, first compound 0.00316 µM
[18] = second compound 3 µM, first compound 0.01 µM
[19] = second compound 3 µM, first compound 0.0316 µM
[20] = second compound 3 µM, first compound 0.1 µM
[21] = second compound 0.03 µM, first compound 0.316 µM
[22] = second compound 0.03 µM, first compound 1 µM
[23] = second compound 0.0949 µM, first compound 0.316 µM
[24] = second compound 0.0949 µM, first compound 1 µM
[25] = second compound 0.3 µM, first compound 0.316 µM
[26] = second compound 0.3 µM, first compound 1 µM
[27] = second compound 0.949 µM, first compound 0.316 µM
[28] = second compound 0.949 µM, first compound 1 µM
[29] = second compound 3 µM, first compound 0.316 µM
[30] = second compound 3 µM, first compound 1 µM

Row | SMILES | IC50 (second compound 0.03 µM) [nM] | IC50 (second compound 0.0949 µM) [nM] | IC50 (second compound 0.3 µM) [nM] | IC50 (second compound 0.949 µM) [nM] | IC50 (second compound 3 µM) [nM] | viability, T/C [1] [%] | viability, T/C [2] [%] | viability, T/C [3] [%] | viability, T/C [4] [%] | viability, T/C [5] [%] | viability, T/C [6] [%] | viability, T/C [7] [%] | viability, T/C [8] [%] | viability, T/C [9] [%] | viability, T/C [11] [%] | viability, T/C [12] [%] | viability, T/C [15] [%] | viability, T/C [16] [%] | viability, T/C [19] [%] | viability, T/C [20] [%] | further results
1 | Cn1ncnc1[C@H]1c2n[nH]c(=O)c3cc(F)cc(c23)N[C@@H]1c1ccc(F)cc1 + CCN1C(C(=O)NC23CCC(C(=O)O)(CC2)CC3)C(c2cccc(Cl)c2F)C2(C(=O)Nc3cc(Cl)ccc32)C12CCCCC2 | > 100 | > 100 | > 100 | > 100 | > 100 | 88.9 | 94 | 96 | 91.1 | 89.7 | 91 | 101 | 82.8 | 102 | 98.3 | 98.8 | 106 | 88.7 | 106 | 89 | viability, T/C (second compound 0.03 µM, first compound 0.000316 µM): 108%; viability, T/C (second compound 0.03 µM, first compound 0.001 µM): 108%; viability, T/C (second compound 0.0949 µM, first compound 0.000316 µM): 103%; viability, T/C (second compound 0.0949 µM, first compound 0.001 µM): 109%; viability, T/C (second compound 0.3 µM, first compound 0.000316 µM): 112%; viability, T/C (second compound 0.3 µM, first compound 0.001 µM): 114%; viability, T/C [10]: 80.7%; viability, T/C (second compound 0.949 µM, first compound 0.000316 µM): 112%; viability, T/C (second compound 0.949 µM, first compound 0.001 µM): 121%; viability, T/C [13]: 106%; viability, T/C [14]: 97.4%; viability, T/C (second compound 3 µM, first compound 0.000316 µM): 109%; viability, T/C (second compound 3 µM, first compound 0.001 µM): 105%; viability, T/C [17]: 109%; viability, T/C [18]: 91.4%
2 | O=C(c1cc(Cc2n[nH]c(=O)c3ccccc23)ccc1F)N1CCN(C(=O)C2CC2)CC1 + CCN1C(C(=O)NC23CCC(C(=O)O)(CC2)CC3)C(c2cccc(Cl)c2F)C2(C(=O)Nc3cc(Cl)ccc32)C12CCCCC2 | > 10000 | > 10000 | > 10000 | > 10000 | > 10000 |  |  | 96 | 104 |  |  | 101 | 110 |  | 101 | 97.2 | 106 | 105 | 104 | 115 | viability, T/C [21]: 83.9%; viability, T/C [22]: 86.8%; viability, T/C (second compound 0.03 µM, first compound 3.16 µM): 92.5%; viability, T/C (second compound 0.03 µM, first compound 10 µM): 83.3%; viability, T/C [23]: 93.8%; viability, T/C [24]: 85.8%; viability, T/C (second compound 0.0949 µM, first compound 3.16 µM): 85.4%; viability, T/C (second compound 0.0949 µM, first compound 10 µM): 85%; viability, T/C [25]: 97.7%; viability, T/C [26]: 75.1%; viability, T/C (second compound 0.3 µM, first compound 3.16 µM): 86.3%; viability, T/C (second compound 0.3 µM, first compound 10 µM): 82.7%; viability, T/C [27]: 102%; viability, T/C [28]: 92%; viability, T/C (second compound 0.949 µM, first compound 3.16 µM): 89%; viability, T/C (second compound 0.949 µM, first compound 10 µM): 97.6%; viability, T/C [29]: 111%; viability, T/C [30]: 96.5%; viability, T/C (second compound 3 µM, first compound 3.16 µM): 88.9%; viability, T/C (second compound 3 µM, first compound 10 µM): 91.5%
3 | O=C(c1ccc(F)c(F)c1Nc1ccc(I)cc1F)N1CC(O)([C@@H]2CCCCN2)C1 + CCN1C(C(=O)NC23CCC(C(=O)O)(CC2)CC3)C(c2cccc(Cl)c2F)C2(C(=O)Nc3cc(Cl)ccc32)C12CCCCC2 | 96.2 | 81.4 | 83.6 | 81.6 | 56.2 | 90.3 | 88.7 | 68.4 | 49.4 | 99.7 | 92.9 | 66.8 | 45.5 | 94.9 | 66.3 | 45.4 | 64.2 | 46.8 | 61.5 | 37.6 | viability, T/C [21]: 41.6%; viability, T/C [22]: 34.6%; viability, T/C [23]: 42.9%; viability, T/C [24]: 32.1%; viability, T/C [10]: 87.8%; viability, T/C [25]: 43.9%; viability, T/C [26]: 33.2%; viability, T/C [13]: 87.3%; viability, T/C [14]: 86.3%; viability, T/C [27]: 40%; viability, T/C [28]: 32%; viability, T/C [17]: 97.4%; viability, T/C [18]: 89.2%; viability, T/C [29]: 37%; viability, T/C [30]: 28.8%
